Activity calls are given as the source filed them.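 The calls were made as follows: active = falling polarization with an AC50 at most ten times the sample's highest valid dose; inconclusive = flat curve at 30 to 70% inhibition, or poor fit; inactive = rising signal, flat weak curves, or AC50 past limit.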
Target: Golgi-associated PDZ and coiled-coil motif-containing protein (Homo sapiens) (UniProt Q9HD26)
Assay: disruptors of CAL PDZ reporter peptide binding – biochemical, fluorescence polarization, untagged CAL PDZ, dry powder, dose response (AID 602255)
Details: CAL PDZ / TMR peptide fluorescence polarization, 1 h; for activity change, negative = inhibition: at 35 µM (top of the series)

Row | Compound | activity change, negative = inhibition | AC50
1 | O=S(=O)(Nc1ccc(O)c2ccccc12)c1ccccc1 | inactive | –
2 | O=S(=O)(Nc1cc(Sc2ccccc2)c(O)c2ccccc12)c1ccc(Cl)cc1 | inactive | –
3 | O=C(O)CSc1cc(NS(=O)(=O)c2ccc(Br)cc2)c2ccccc2c1O | – | > 35 µM (inactive)
4 | COc1ccc(S(=O)(=O)Nc2cc(SCC(=O)O)c(O)c3ccccc23)cc1 | inactive | –
